Experimental data: PubChem BioAssay (NCI)
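Results reflect a 48-hour exposure of cells in 96-well plates to compound at five concentrations. The concentration for 50% growth inhibition is given as GI50. The concentration for full growth arrest is given as TGI.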

Assays:
Assay in all cases: NCI-60 cell line screen, 48 h
786-0 renal = system: 786-0 renal
A498 renal = system: A498 renal
A549 NSCLC = system: A549 NSCLC
ACHN renal = system: ACHN renal
BT-549 breast = system: BT-549 breast
CAKI-1 renal = system: CAKI-1 renal
CCRF-CEM leukemia = system: CCRF-CEM leukemia
DU-145 prostate = system: DU-145 prostate
EKVX NSCLC = system: EKVX NSCLC
HCC-2998 colon = system: HCC-2998 colon
HCT-116 colon = system: HCT-116 colon
HCT-15 colon = system: HCT-15 colon
HL-60(TB) leukemia = system: HL-60(TB) leukemia
HOP-62 NSCLC = system: HOP-62 NSCLC
HOP-92 NSCLC = system: HOP-92 NSCLC
HS 578T breast = system: HS 578T breast
HT29 colon = system: HT29 colon
IGROV1 ovarian = system: IGROV1 ovarian
K-562 leukemia = system: K-562 leukemia
KM12 colon = system: KM12 colon
LOX IMVI melanoma = system: LOX IMVI melanoma
M14 melanoma = system: M14 melanoma
MALME-3M melanoma = system: MALME-3M melanoma
MCF7 breast = system: MCF7 breast
MDA-MB-231 breast = system: MDA-MB-231 breast
MDA-MB-435 = system: MDA-MB-435
MOLT-4 leukemia = system: MOLT-4 leukemia
NCI-H226 lung = system: NCI-H226 lung
NCI-H23 lung = system: NCI-H23 lung
NCI-H460 lung = system: NCI-H460 lung
NCI-H522 lung = system: NCI-H522 lung
NCI/ADR-RES ovarian = system: NCI/ADR-RES ovarian
OVCAR-3 ovarian = system: OVCAR-3 ovarian
OVCAR-4 ovarian = system: OVCAR-4 ovarian
OVCAR-5 ovarian = system: OVCAR-5 ovarian
OVCAR-8 ovarian = system: OVCAR-8 ovarian
PC-3 prostate = system: PC-3 prostate
RPMI-8226 leukemia = system: RPMI-8226 leukemia
RXF 393 renal = system: RXF 393 renal
SF-268 CNS = system: SF-268 CNS
SF-295 CNS = system: SF-295 CNS
SF-539 CNS = system: SF-539 CNS
SK-MEL-2 melanoma = system: SK-MEL-2 melanoma
SK-MEL-28 melanoma = system: SK-MEL-28 melanoma
SK-MEL-5 melanoma = system: SK-MEL-5 melanoma
SK-OV-3 ovarian = system: SK-OV-3 ovarian
SN12C renal = system: SN12C renal
SNB-19 CNS = system: SNB-19 CNS
SNB-75 CNS = system: SNB-75 CNS
SR leukemia = system: SR leukemia
SW-620 colon = system: SW-620 colon
T-47D breast = system: T-47D breast
TK-10 renal = system: TK-10 renal
U251 CNS = system: U251 CNS
UACC-257 melanoma = system: UACC-257 melanoma
UACC-62 melanoma = system: UACC-62 melanoma
UO-31 renal = system: UO-31 renal
COLO 205 colon = system: COLO 205 colon

## O=C(/C=C/c1ccco1)Nc1ncc(Cc2cc(Cl)ccc2Cl)s1
786-0 renal
  GI50: 0.0699 µM
  TGI: > 100 µM
A498 renal
  GI50: 0.0245 µM
  TGI: 3.96 µM
A549 NSCLC
  GI50: 0.108 µM
  TGI: > 100 µM
ACHN renal
  GI50: 0.0664 µM
  TGI: > 100 µM
BT-549 breast
  GI50: 0.189 µM
CAKI-1 renal
  GI50: 0.05 µM
  TGI: > 100 µM
CCRF-CEM leukemia
  GI50: 0.0385 µM
  TGI: > 100 µM
DU-145 prostate
  GI50: 0.055 µM
  TGI: > 41.6 µM
EKVX NSCLC
  GI50: 0.161 µM
  TGI: > 100 µM
HCC-2998 colon
  GI50: 0.208 µM
  TGI: > 100 µM
HCT-116 colon
  GI50: 0.0509 µM
  TGI: > 100 µM
HCT-15 colon
  GI50: 0.0463 µM
  TGI: > 100 µM
HL-60(TB) leukemia
  GI50: 0.0482 µM
  TGI: 0.159 µM
HOP-62 NSCLC
  GI50: 0.0645 µM
  TGI: > 76.5 µM
HOP-92 NSCLC
  GI50: 6.91 µM
  TGI: > 100 µM
HS 578T breast
  GI50: 0.0427 µM
  TGI: > 100 µM
HT29 colon
  GI50: 0.038 µM
  TGI: > 100 µM
IGROV1 ovarian
  GI50: 0.0807 µM
  TGI: > 100 µM
K-562 leukemia
  GI50: 0.0344 µM
  TGI: > 100 µM
KM12 colon
  GI50: 0.0419 µM
  TGI: > 100 µM
LOX IMVI melanoma
  GI50: 0.0762 µM
  TGI: > 100 µM
M14 melanoma
  GI50: 0.0373 µM
  TGI: > 100 µM
MALME-3M melanoma
  GI50: 0.0769 µM
  TGI: > 100 µM
MCF7 breast
  GI50: 0.0359 µM
  TGI: > 100 µM
MDA-MB-231 breast
  GI50: 0.157 µM
  TGI: > 100 µM
MDA-MB-435
  GI50: 0.0191 µM
  TGI: 0.0449 µM
MOLT-4 leukemia
  GI50: 0.061 µM
  TGI: > 100 µM
NCI-H226 lung
  GI50: 0.581 µM
  TGI: > 100 µM
NCI-H23 lung
  GI50: 0.156 µM
  TGI: > 100 µM
NCI-H460 lung
  GI50: 0.0392 µM
  TGI: > 100 µM
NCI-H522 lung
  GI50: 0.0364 µM
NCI/ADR-RES ovarian
  GI50: 0.0327 µM
  TGI: 0.37 µM
OVCAR-3 ovarian
  GI50: 0.0294 µM
  TGI: 0.122 µM
OVCAR-4 ovarian
  GI50: 1.03 µM
  TGI: > 100 µM
OVCAR-5 ovarian
  GI50: 0.257 µM
  TGI: > 100 µM
OVCAR-8 ovarian
  GI50: 0.12 µM
  TGI: > 100 µM
PC-3 prostate
  GI50: 0.0421 µM
  TGI: > 100 µM
RPMI-8226 leukemia
  GI50: 0.0634 µM
  TGI: > 100 µM
RXF 393 renal
  GI50: 0.0328 µM
  TGI: 0.303 µM
SF-268 CNS
  GI50: 0.102 µM
  TGI: > 100 µM
SF-295 CNS
  GI50: 0.045 µM
  TGI: > 100 µM
SF-539 CNS
  GI50: 0.0373 µM
  TGI: 0.191 µM
SK-MEL-2 melanoma
  GI50: 0.148 µM
  TGI: > 100 µM
SK-MEL-28 melanoma
  GI50: 2.13 µM
  TGI: > 100 µM
SK-MEL-5 melanoma
  GI50: 0.0441 µM
  TGI: > 64.8 µM
SK-OV-3 ovarian
  GI50: 0.0538 µM
  TGI: > 100 µM
SN12C renal
  GI50: 0.117 µM
  TGI: > 100 µM
SNB-19 CNS
  GI50: 0.0585 µM
  TGI: > 100 µM
SNB-75 CNS
  GI50: 0.0261 µM
  TGI: 0.433 µM
SR leukemia
  GI50: 0.0385 µM
  TGI: > 100 µM
SW-620 colon
  GI50: 0.0417 µM
  TGI: > 100 µM
T-47D breast
  GI50: 0.255 µM
  TGI: > 100 µM
TK-10 renal
  GI50: 6.88 µM
  TGI: > 100 µM
U251 CNS
  GI50: 0.0426 µM
  TGI: > 100 µM
UACC-257 melanoma
  GI50: > 100 µM
  TGI: > 100 µM
UACC-62 melanoma
  GI50: 0.0487 µM
  TGI: > 100 µM
UO-31 renal
  GI50: 0.162 µM
  TGI: > 100 µM

## ClC/C=C/CSc1ncnc2nc[nH]c12
786-0 renal
  GI50: > 100 µM
  TGI: > 100 µM
A498 renal
  GI50: > 100 µM
  TGI: > 100 µM
ACHN renal
  GI50: > 100 µM
  TGI: > 100 µM
BT-549 breast
  GI50: > 100 µM
  TGI: > 100 µM
CAKI-1 renal
  GI50: > 100 µM
  TGI: > 100 µM
CCRF-CEM leukemia
  GI50: > 100 µM
  TGI: > 100 µM
COLO 205 colon
  GI50: > 100 µM
  TGI: > 100 µM
DU-145 prostate
  GI50: > 100 µM
  TGI: > 100 µM
EKVX NSCLC
  GI50: > 100 µM
  TGI: > 100 µM
HCC-2998 colon
  GI50: > 100 µM
  TGI: > 100 µM
HCT-116 colon
  GI50: > 100 µM
  TGI: > 100 µM
HCT-15 colon
  GI50: > 100 µM
  TGI: > 100 µM
HOP-62 NSCLC
  GI50: > 100 µM
  TGI: > 100 µM
HOP-92 NSCLC
  GI50: > 100 µM
  TGI: > 100 µM
HS 578T breast
  GI50: > 100 µM
  TGI: > 100 µM
HT29 colon
  GI50: > 100 µM
  TGI: > 100 µM
IGROV1 ovarian
  GI50: > 100 µM
  TGI: > 100 µM
K-562 leukemia
  GI50: > 100 µM
  TGI: > 100 µM
KM12 colon
  GI50: > 100 µM
  TGI: > 100 µM
LOX IMVI melanoma
  GI50: > 100 µM
  TGI: > 100 µM
M14 melanoma
  GI50: > 100 µM
  TGI: > 100 µM
MALME-3M melanoma
  GI50: > 100 µM
  TGI: > 100 µM
MCF7 breast
  GI50: > 100 µM
  TGI: > 100 µM
MDA-MB-231 breast
  GI50: > 100 µM
  TGI: > 100 µM
MDA-MB-435
  GI50: > 100 µM
  TGI: > 100 µM
MOLT-4 leukemia
  GI50: > 100 µM
  TGI: > 100 µM
NCI-H226 lung
  GI50: > 100 µM
  TGI: > 100 µM
NCI-H23 lung
  GI50: > 100 µM
  TGI: > 100 µM
NCI-H460 lung
  GI50: > 100 µM
  TGI: > 100 µM
NCI/ADR-RES ovarian
  GI50: > 100 µM
  TGI: > 100 µM
OVCAR-3 ovarian
  GI50: > 100 µM
  TGI: > 100 µM
OVCAR-4 ovarian
  GI50: > 100 µM
  TGI: > 100 µM
OVCAR-5 ovarian
  GI50: > 100 µM
  TGI: > 100 µM
OVCAR-8 ovarian
  GI50: > 100 µM
  TGI: > 100 µM
PC-3 prostate
  GI50: > 100 µM
  TGI: > 100 µM
RPMI-8226 leukemia
  GI50: > 100 µM
  TGI: > 100 µM
RXF 393 renal
  GI50: > 100 µM
  TGI: > 100 µM
SF-268 CNS
  GI50: > 100 µM
  TGI: > 100 µM
SF-295 CNS
  GI50: > 100 µM
  TGI: > 100 µM
SF-539 CNS
  GI50: > 100 µM
  TGI: > 100 µM
SK-MEL-28 melanoma
  GI50: > 100 µM
  TGI: > 100 µM
SK-MEL-5 melanoma
  GI50: > 100 µM
  TGI: > 100 µM
SK-OV-3 ovarian
  GI50: > 100 µM
  TGI: > 100 µM
SN12C renal
  GI50: > 100 µM
  TGI: > 100 µM
SNB-19 CNS
  GI50: > 100 µM
  TGI: > 100 µM
SNB-75 CNS
  GI50: > 100 µM
  TGI: > 100 µM
SR leukemia
  GI50: > 100 µM
  TGI: > 100 µM
SW-620 colon
  GI50: > 100 µM
  TGI: > 100 µM
T-47D breast
  GI50: > 100 µM
  TGI: > 100 µM
U251 CNS
  GI50: > 100 µM
  TGI: > 100 µM
UACC-257 melanoma
  GI50: > 100 µM
  TGI: > 100 µM
UACC-62 melanoma
  GI50: > 100 µM
  TGI: > 100 µM
UO-31 renal
  GI50: > 100 µM
  TGI: > 100 µM
